Test system: physostigmine-induced lethality in mice
Assay: Sedative effects in vivo, physostigmine-induced lethality test
Conditions: result in words, figures not given
Procedure: The physostigmine-induced lethality test is being used in the present studies. This test is a modification of the sedation test technique reported by VILLANI et al., in U.S. Pat. No. 4,659,716. In short, physostigmine (1.9 mg/kg s.c.) produces 90-100% lethality when given to grouped mice with 10 animals in each plastic cage (approx. 11×26×13 cm). Mice administered a sedating agent, such as for example a sedative antihistamine prior to physostigmine are protected and survive. In the present study, test compounds are administered orally 60 minutes prior to physostigmine. The number of survivors is counted 30 minutes after physostigmine administration.

## CN(C)CCOC(c1ccccc1)c1ccccc1 [diphenhydramine, DIPHENHYDRAMINE]
  sedative activity / sedative side effects: profound sedative side effects

— patent US6372799B1, “Non-sedating diphenhydramine metabolites” (Bridge Pharma, Inc., priority 1998, dated 2002)
